In US6420367B1, “Pyrimidine derivatives exhibiting antitumor activity” (Shionogo & Co., Ltd., priority 1998, dated 2002):
Values after ≈ are worked out from the molar mass of the structure shown.

Experiments:
[1] = test system: human pancreas cancer PANC-1; experiment: In vitro cell growth inhibition test, MTT assay; assay type: cell-based; settings: MTT assay 4 days after compound addition
Source text: (§1) Test Example 2 In Vitro Cell Growth Inhibition Test Cells and MTT Assay
(§2) Human squamous lung cancer […], human squamous lung cancer Ma44, human lung adenocarcinoma A549, human colon cancer HT29 and human pancreas cancer PANC-1 were used.

[2] = test system: human squamous lung cancer Ma44; experiment: In vitro cell growth inhibition test, MTT assay; assay type: cell-based; settings: MTT assay 4 days after compound addition
Source text: as §1, §2

human colon cancer HT29 = experiment: In vitro cell growth inhibition test, MTT assay; assay type: cell-based; settings: MTT assay 4 days after compound addition
Source text: as §1, §2

[3] = test system: human lung adenocarcinoma A549; experiment: In vitro cell growth inhibition test, MTT assay; assay type: cell-based; settings: MTT assay 4 days after compound addition
Source text: as §1, §2

[4] = test system: human squamous lung cancer RERF-RC-AI; experiment: In vitro cell growth inhibition test, MTT assay; assay type: cell-based; settings: MTT assay 4 days after compound addition
Source text: as §1, §2

[5] = test system: DT-R cells (pRRE3-luc-transfected v-ki-ras-transformed NIH3T3 cells); signal derived from Ras oncogene products; experiment: Inhibitory effect against cellular signaling derived from Ras oncogene products: luciferase reporter, dissociation of DT-R from DT-C activity (MAC); assay type: cell-based, mouse; settings: minimal tested concentration at which luciferase activities of DT-C cells and DT-R cells dissociated
Source text: Test Example 1 Inhibitory Effect Against Cellular Signaling Derived From Ras Oncogene Products
1) Establishment of Cell Lines Used in Assay
Based on the reporter plasmid (pGV-P (Toyo Ink, Japan)), in which luciferase gene was ligated to SV40-derived minimal promoter, we constructed a plasmid designated pRRE3-luc by inserting 3 copies of chemically synthesized oligonucleotides (Sequence: CAGGATATGACTCT, derived from mouse NVL-3 (M. A. Reddy et al.(1992)Mol. Endocrinol., 6, 1051)) into upstream of the promoter. v-ki-ras-transformed NIH3T3 cells (DT cells, provided by Dr. Makoto Noda (Kyoto Univ., School of medicine)) were transfected with this plasmid by liposome-mediated transfection and transfected cell lines stably incorporated and maintained each plasmid were obtained. We named pGV-P and pRRE3-transfected cell line as DT-C and DT-R, respectively and used in the assay described below.
2) Preparation of Samples
i) All the cell lines were cultured in Dulbecco's Modified Essential Medium (DMEM: 10% Fetal Calf Serum(FCS: Hyclone, USA)) including […] kanamycin (Meiji Seika, Japan) in humidified incubator under condition of 5% CO2 at 37° C.
ii) DT-C and DT-R cells were seeded at 2500 cells/well into flat-bottom 96 well multiplate (Sumitomo bakelite) and incubated for 24 hours.
iii) Test compounds were prepared as 1 mg/ml DMSO solution.
iv) The solution of test compounds were added to the culture. Tested compounds are used at the concentration from […] to 0.51 ng/ml with by 3-fold dilution.
v) After 24 hours, the culture supernatant was completely aspirated and […] of cell-lysing solution (PGC-50 (Toyo Ink, Japan)) was added before cells were dried up. In order to the cells were lysed completely, multiwell plates were left at room temperature for 10 to 30 min. The plates were wrapped up and stored at −20° C. till the day of measurement.
3) Measurement of Samples
i) Melt the samples by putting 96 well multiplate at 37° C. and add 90 μl/well 25 mM Tris (pH 7.5).
ii) Transfer 50 μl of the sample (110 μl) to the 96 well microplate for measurement (Microlite 1 (Dynatech)).
iii) Measure the samples by the luminometer, LUMINOUS CT9000D (Dia-Yatron, Japan). We used Pickagene luminescence kit PGL2000 or LT2.0 (Toyo Ink, Japan) as substrates for luminescence measurement (50 μl/well).
4) Judgment of the Results
i) The luciferase activity of DT-C cells and DT-R cells were plotted in the graph where the relative activity and the compound concentration were expressed as Y-axis and X-axis, respectively. We judged by the degree of dissociation between the activities of DT-C cells and DT-R cells as an index.
ii) Concretely, efficacy of the compound was expressed by two values described below.
a) Among the points of concentration tested, the minimal concentration (Minimal Active Concentration: MAC), at which the activities of DT-C cells and DT-R cells dissociated, was shown as an index of efficacy of the compound.

SMILES | IC50, PANC-1 [1] [µg/mL] | IC50, Ma44 [2] [µg/mL] | IC50, HT29 (human colon cancer HT29) [µg/mL] | IC50, A549 [3] [µg/mL] | IC50, RERF-LC-AI [4] [µg/mL] | MAC (Minimal Active Concentration) [5] [µg/mL]
CCNC(=Nc1nc(C)ncc1CSc1nnc(-c2ccc(OCC)cc2)o1)NCC [Compound A-101] | 0.077 (≈ 0.174 µM) | 0.21 (≈ 0.476 µM) | 0.052 (≈ 0.118 µM) | 0.79 (≈ 1.79 µM) | – | –
CCNC(=Nc1ncncc1CSc1nnc(-c2cc[n+]([O-])cc2)o1)NCC [Compound D-42] | 0.17 (≈ 0.425 µM) | 0.38 (≈ 0.949 µM) | 0.071 (≈ 0.177 µM) | 0.57 (≈ 1.42 µM) | 0.082 (≈ 0.205 µM) | –
CCNC(=Nc1nc(C)ncc1CSc1nnc(-c2ccc(C)cc2)o1)NCC [Compound A-74] | 0.017 (≈ 0.0413 µM) | 0.012 (≈ 0.0292 µM) | 0.01 (≈ 0.0243 µM) | 0.034 (≈ 0.0826 µM) | 0.008 (≈ 0.0194 µM) | 0.123
CCNC(=Nc1ncncc1CSc1nnc(-c2ccccc2NC(C)=O)o1)NCC [Compound A-57] | 0.0088 (≈ 0.02 µM) | 0.025 (≈ 0.0567 µM) | – | 0.014 (≈ 0.0318 µM) | – | 0.0137
CCNC(=Nc1ncncc1CSc1nnc(-c2ccc(NC)cc2)o1)NCC [Compound A-66] | 0.17 (≈ 0.412 µM) | 1.8 (≈ 4.36 µM) | 0.067 (≈ 0.162 µM) | 0.036 (≈ 0.0873 µM) | 0.05 (≈ 0.121 µM) | –
CCNC(=Nc1nc(C)ncc1CSc1nnc(-c2ccc(NC(C)=O)cc2)o1)NCC [Compound A-56] | 0.085 (≈ 0.187 µM) | 0.85 (≈ 1.87 µM) | – | 0.18 (≈ 0.396 µM) | – | –
CCCNC(=Nc1nc(C)ncc1CSc1nnc(-c2ccc(N)cc2)o1)NCC [Compound A-167] | 0.006 (≈ 0.0141 µM) | 0.025 (≈ 0.0586 µM) | 0.0061 (≈ 0.0143 µM) | 0.012 (≈ 0.0281 µM) | 0.0032 (≈ 0.0075 µM) | 0.0137
CCNC(=Nc1ncncc1CSc1nnc(-c2ccc(N)cc2)o1)NC [Compound A-176] | 0.0056 (≈ 0.0146 µM) | 0.018 (≈ 0.0468 µM) | 0.006 (≈ 0.0156 µM) | 0.012 (≈ 0.0312 µM) | 0.0032 (≈ 0.00832 µM) | 0.123
CCNC(=Nc1nc(C)ncc1CSc1nnc(-c2ccc([N+](=O)[O-])cc2)o1)NCC [Compound A-82] | 0.014 (≈ 0.0316 µM) | 0.014 (≈ 0.0316 µM) | 0.006 (≈ 0.0136 µM) | 0.031 (≈ 0.0701 µM) | 0.008 (≈ 0.0181 µM) | <0.000508
CCNC(=Nc1nc(C)ncc1CSc1nnc(-c2ccc([N+](=O)[O-])cc2)o1)NC(C)C [Compound A-134] | 0.025 (≈ 0.0548 µM) | 0.026 (≈ 0.057 µM) | 0.013 (≈ 0.0285 µM) | 0.049 (≈ 0.107 µM) | 0.016 (≈ 0.035 µM) | 0.0137
CCNC(=Nc1ncncc1CSc1nnc(-c2ccc([N+](=O)[O-])cc2)o1)NCC [Compound A-172] | 0.0031 (≈ 0.00723 µM) | 0.0038 (≈ 0.00887 µM) | 0.0033 (≈ 0.0077 µM) | 0.0075 (≈ 0.0175 µM) | 0.0015 (≈ 0.0035 µM) | 0.0137
CCCNC(=Nc1nc(C)ncc1CSc1nnc(-c2ccc([N+](=O)[O-])cc2)o1)NCC.Cl [Compound A-188] | 0.017 | 0.016 | 0.01 | 0.052 | 0.012 | 0.0137
CCNC(=Nc1ncncc1CSc1nnc(-c2ccc(N(C)C)cc2)o1)NCC [Compound A-67] | 0.34 (≈ 0.797 µM) | 6.1 (≈ 14.3 µM) | 0.083 (≈ 0.195 µM) | 0.083 (≈ 0.195 µM) | 0.053 (≈ 0.124 µM) | –
CCNC(=Nc1nc(C)ncc1CSc1nnc(-c2c[nH]nc2N)o1)NCC [Compound D-7] | 2.4 (≈ 5.96 µM) | 5.2 (≈ 12.9 µM) | 0.18 (≈ 0.447 µM) | 3.2 (≈ 7.95 µM) | 0.083 (≈ 0.206 µM) | –
CCNC(=Nc1nc(C)ncc1CSc1nnc(-c2cc(F)c(F)cc2N)o1)NCC [Compound A-52] | 0.024 (≈ 0.0535 µM) | 0.11 (≈ 0.245 µM) | – | 0.049 (≈ 0.109 µM) | – | 0.123
CCNC(=Nc1ncncc1CSc1nnc(-c2csc([N+](=O)[O-])c2)o1)NCC [Compound D-43] | 0.1 (≈ 0.23 µM) | 0.2 (≈ 0.46 µM) | 0.1 (≈ 0.23 µM) | 0.27 (≈ 0.621 µM) | 0.21 (≈ 0.483 µM) | –
CCNC(=Nc1nc(C)ncc1CSc1nnc(-c2ccccc2C)o1)NCC [Compound A-78] | 0.037 (≈ 0.0899 µM) | 0.052 (≈ 0.126 µM) | 0.021 (≈ 0.051 µM) | 0.063 (≈ 0.153 µM) | 0.017 (≈ 0.0413 µM) | –
CCNC(=Nc1nc(C)ncc1CSc1nnc(-c2ccc(I)cc2)o1)NCC [Compound A-105] | 0.086 (≈ 0.164 µM) | 0.091 (≈ 0.174 µM) | 0.064 (≈ 0.122 µM) | 0.11 (≈ 0.21 µM) | – | –
CCNC(=Nc1nc(C)ncc1CSc1nnc(-c2ccccc2Cl)o1)NCC [Compound A-77] | 0.048 (≈ 0.111 µM) | 0.11 (≈ 0.255 µM) | 0.044 (≈ 0.102 µM) | 0.13 (≈ 0.301 µM) | 0.03 (≈ 0.0695 µM) | –
Cc1ncc(CSc2nnc(-c3ccc([N+](=O)[O-])cc3)o2)c(N=C(NCC(C)C)NCC(C)C)n1 [Compound A-129] | 0.21 (≈ 0.421 µM) | 0.33 (≈ 0.662 µM) | 0.3 (≈ 0.602 µM) | 0.43 (≈ 0.862 µM) | 0.17 (≈ 0.341 µM) | –
CCNC(=Nc1nc(C)ncc1CSc1nnc(-c2ccccc2)o1)NCC [Compound A-107] | 0.052 (≈ 0.131 µM) | 0.055 (≈ 0.138 µM) | 0.036 (≈ 0.0906 µM) | 0.065 (≈ 0.164 µM) | – | 0.370
CCNC(=Nc1nc(C)ncc1CSc1nnc(-c2ccc(C(=O)c3ccccc3)cc2)o1)NCC [Compound A-84] | 0.3 (≈ 0.598 µM) | 0.41 (≈ 0.817 µM) | 0.38 (≈ 0.758 µM) | 0.44 (≈ 0.877 µM) | 0.18 (≈ 0.359 µM) | –
